Source: ChEMBL document CHEMBL1201862, “PubChem BioAssay data set” (2004)
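How tested: cells in 96-well plates exposed to compound for 48 hours at five concentrations. GI50 marks 50% less growth.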 Active and inactive are the calls of the source. Cut-off read from the data, not from the text of the source: active = GI50 up to about 1.1 µM and inactive = higher.

How the values were obtained:
Assay in all cases: NCI tumour cell line growth inhibition, 48 h
A549 = tested on: A549
CCRF-CEM = tested on: CCRF-CEM
HCC 2998 = tested on: HCC 2998
HL-60 = tested on: HL-60
HOP-92 = tested on: HOP-92
IGROV-1 = tested on: IGROV-1
KM12 = tested on: KM12
LOX IMVI = tested on: LOX IMVI
MCF7 = tested on: MCF7
Malme-3M = tested on: Malme-3M
NCI-H23 = tested on: NCI-H23
NCI-H460 = tested on: NCI-H460
OVCAR-3 = tested on: OVCAR-3
OVCAR-5 = tested on: OVCAR-5
OVCAR-8 = tested on: OVCAR-8
PC-3 = tested on: PC-3
SF-539 = tested on: SF-539
SK-OV-3 = tested on: SK-OV-3
TK-10 = tested on: TK-10
U-251 = tested on: U-251

| SMILES | GI50 (A549) | GI50 (CCRF-CEM) | GI50 (HCC 2998) | GI50 (HL-60) | GI50 (HOP-92) | GI50 (IGROV-1) | GI50 (KM12) | GI50 (LOX IMVI) | GI50 (MCF7) | GI50 (Malme-3M) | GI50 (NCI-H23) | GI50 (NCI-H460) | GI50 (OVCAR-3) | GI50 (OVCAR-5) | GI50 (OVCAR-8) | GI50 (PC-3) | GI50 (SF-539) | GI50 (SK-OV-3) | GI50 (TK-10) | GI50 (U-251) |
| --- | --- | --- | --- | --- | --- | --- | --- | --- | --- | --- | --- | --- | --- | --- | --- | --- | --- | --- | --- | --- |
| CC(=O)OCC1OC(n2cc(F)c(=O)[nH]c2=O)C(OC(C)=O)C1OC(C)=O (stereo not given) | 16.7 µM (inactive) | 6 µM (inactive) | 7.1 µM (inactive) | 27.9 µM (inactive) | 16.7 µM (inactive) | 52.4 µM (inactive) | 8.41 µM (inactive) | 5.9 µM (inactive) | 1.71 µM (inactive) | 5.05 µM (inactive) | 75.2 µM (inactive) | 5.37 µM (inactive) | 23.3 µM (inactive) | 33.8 µM (inactive) | 26 µM (inactive) | 73.8 µM (inactive) | 7.55 µM (inactive) | > 73.5 µM (inactive) | > 100 µM (inactive) | 13.4 µM (inactive) |
| Cn1c2c(c3ccccc31)CCN(CCCCN1CCN(c3ccccc3)CC1)C2=O | 97.3 µM (inactive) | 24.5 µM (inactive) | 5.62 µM (inactive) | 7.78 µM (inactive) | > 29.1 µM (inactive) | > 76.6 µM (inactive) | 30.1 µM (inactive) | 12.8 µM (inactive) | 19.2 µM (inactive) | 8.04 µM (inactive) | 35.6 µM (inactive) | 28.6 µM (inactive) | 57.3 µM (inactive) | 19.6 µM (inactive) | 47.6 µM (inactive) | 11.7 µM (inactive) | 34 µM (inactive) | > 100 µM (inactive) | 45 µM (inactive) | 34.8 µM (inactive) |
| C/C(=N\NC(=S)N(C)CCN(C)C(=S)N/N=C(\C)c1ccccn1)c1ccccn1 | 2.37 µM (inactive) | 0.428 µM (active) | 10.4 µM (inactive) | 0.365 µM (active) | 2.72 µM (inactive) | 0.465 µM (active) | 0.435 µM (active) | 0.811 µM (active) | 2.77 µM (inactive) | 0.826 µM (active) | 4.38 µM (inactive) | 0.509 µM (active) | 0.174 µM (active) | 5.9 µM (inactive) | 0.345 µM (active) | 0.553 µM (active) | 1.66 µM (inactive) | 4.21 µM (inactive) | 0.47 µM (active) | 0.745 µM (active) |
| CCN(CC)C(=O)CCN1CC1 | > 10 µM (inactive) | > 10 µM (inactive) | > 10 µM (inactive) | > 10 µM (inactive) | > 10 µM (inactive) | > 10 µM (inactive) | > 10 µM (inactive) | > 10 µM (inactive) | > 10 µM (inactive) | > 10 µM (inactive) | > 10 µM (inactive) | > 10 µM (inactive) | > 10 µM (inactive) | > 10 µM (inactive) | > 10 µM (inactive) | > 10 µM (inactive) | > 10 µM (inactive) | > 10 µM (inactive) | > 10 µM (inactive) | > 10 µM (inactive) |
| COc1ccc2nc3c([N+](=O)[O-])ccc4c3c(c2c1)N=CN4CCCN(C)C | 0.716 µM (active) | 0.807 µM (active) | 1.37 µM (inactive) | 2.77 µM (inactive) | 1.99 µM (inactive) | 0.855 µM (active) | 1.24 µM (inactive) | 2.01 µM (inactive) | 0.733 µM (active) | 6.3 µM (inactive) | 4.27 µM (inactive) | 0.773 µM (active) | 2.91 µM (inactive) | 10.2 µM (inactive) | 1.3 µM (inactive) | 1.21 µM (inactive) | 0.944 µM (active) | 4.4 µM (inactive) | 1.45 µM (inactive) | 1.65 µM (inactive) |
| COc1ccc(Nc2nc(N)c(C(=O)c3cccs3)s2)cc1 | 5.7 µM (inactive) | 3.38 µM (inactive) | 0.931 µM (active) | 3.56 µM (inactive) | 21.1 µM (inactive) | 4.43 µM (inactive) | 2.99 µM (inactive) | 6.67 µM (inactive) | 5.21 µM (inactive) | 30.1 µM (inactive) | 12.8 µM (inactive) | 3.1 µM (inactive) | 3.47 µM (inactive) | 15.8 µM (inactive) | 19.2 µM (inactive) | 11.4 µM (inactive) | 4.21 µM (inactive) | 20.6 µM (inactive) | 5.08 µM (inactive) | 7.5 µM (inactive) |
| COc1cc([N+](=O)[O-])ccc1NC1=CC(=O)CCC1 | > 100 µM (inactive) | > 100 µM (inactive) | > 100 µM (inactive) | > 100 µM (inactive) | > 100 µM (inactive) | > 100 µM (inactive) | > 100 µM (inactive) | > 100 µM (inactive) | > 100 µM (inactive) | > 100 µM (inactive) | > 100 µM (inactive) | > 100 µM (inactive) | > 100 µM (inactive) | > 100 µM (inactive) | > 100 µM (inactive) | > 100 µM (inactive) | > 100 µM (inactive) | > 100 µM (inactive) | > 100 µM (inactive) | > 100 µM (inactive) |
